In US20030176499A1, “Use of fibrates for the preparation of a medicament useful in the treatment of congestive heart failure” (priority 2003, published 2003):

Assays:
[1] = test system: male Wistar rats with left ventricular hypertrophy induced by constriction of the abdominal aorta; assay: Evaluation of cardiac function in rats with aortic constriction (left ventricular catheter); type: in vivo, rat; settings: anaesthetised rats with aortic constriction, clofibrate 0.2% in the feed for 12 weeks, mean ± standard deviation
Procedure: (§1) Animal-housed male Wistar rats weighing 100-120 g were used: 5 per cage (cage size: 425 mm×266 mm×180 mm with a sawdust litter) at a temperature of […] and 50±15% humidity with a 12/12 h light/darkness cycle and with 15-20 air changes/hour. The animals were fed with LP ALTROMIN (REIPER) feed and spring water ad libitum
(§2) Left ventricular hypertrophy was induced in rats anaesthetised with Nembutal sodium, by means of constriction of the abdominal aorta with a clip (Ø0.8 mm) placed in the abdominal aorta between the diaphragm and the renal branches; one group of animals, which was then used as a control group, underwent the same operation but was not submitted to constriction of the aorta (shams).
(§3) The animals were thus randomly assigned to the following groups:
(§4) CLO: operated on with aortic constriction and treated for 12 weeks, from the day after the operation with clofibrate 0.2% in the feed (60-100 mg/kg/day (n=11).
At the end of treatment, cardiac function was evaluated, in the animals anaesthetised with Nembutal sodium, by means of a polyethylene catheter inserted in the left ventricle via the carotid and connected up to a pressure transducer (Statham p23 XL) and to an amplifier (Biomedica Mangoni bm 61).
The parameters recorded were: heart rate, ventricular systolic and end-diastolic pressure, and the positive and negative derivatives of ventricular pressure, which were recorded on a personal computer by means of a special data acquisition system (IDAS). The measurements were taken for a period of 30 minutes.
The data were expressed as mean ± standard deviation and were compared using Student's t-test for independent data. Differences with P<0.05 were regarded as statistically significant.

[2] = test system: male Wistar rats with left ventricular hypertrophy induced by constriction of the abdominal aorta; settings: rats with aortic constriction, clofibrate 0.2% in the feed for 12 weeks, mean ± standard deviation
Procedure: as §1, §2, §3, §4
At the end of the experiments the animals were sacrificed by means of a lethal dose of Nembutal, the abdominal cavity was opened, the organs were exteriorised in order to verify correct positioning of the aortic clip, and the heart, lungs and liver were then removed and carefully dried and weighed after macroscopic observation of any abnormalities.
The data were expressed as mean ± standard deviation and were compared using Student's t-test for independent data. […]

Structure (SMILES): CCOC(=O)C(C)(C)Oc1ccc(Cl)cc1 [CLO, clofibrate]
- DP/dt max = positive derivative of ventricular pressure [1]: 16108 ± 1115eC mm Hg/sec
- DP/dt min = negative derivative of ventricular pressure [1]: 9556 ± 560bA mm Hg/sec
- DP/dtmax/LVSP (positive derivative normalised for ventricular systolic pressure) [1]: 77 ± 5 s⁻¹
- HR = heart rate [1]: 401 ± 16 b/min
- LDevP/HW (developed pressure normalised for ventricular weight) [1]: 13.3 ± 1.5aC
- LVEDP = left ventricular end-diastolic pressure [1]: 7.2 ± 1.2 mmHg
- LVSP = left ventricular systolic pressure [1]: 206 ± 5aB mm Hg
- LdevP developed pressure [1]: 207 ± 7cA mm Hg
- VW/BW (ventricular weight (mg) / body weight (g)) [2]: 3.33 ± 0.20a
